Data as given in patent US8536181B2, “Prolyl hydroxylase inhibitors” (Aerpio Therapeutics Inc., priority 2009, dated 2013).
Where a name gives a salt, the structure may show the parent alone.

Biological target: HIFPH2 (EGLN1) (Homo sapiens (Human), UniProt Q9GZT9)
Test: EGLN-1 Activity Assay (MALDI-TOF MS)
Format: biochemical
Details: recombinant human EGLN-1-179/426, HIF-1α peptide 556-574
Experimental: The enzyme, quantity predetermined to hydroxylate 20% of substrate in 20 minutes, is added to start the reaction. Where inhibitors are used, compounds are prepared in dimethyl sulfoxide at 10-fold final assay concentration. After 20 minutes at room temperature, the reaction is stopped by transferring 10 μL of reaction mixture to 50 μL of a mass spectrometry matrix solution (α-cyano-4-hydroxycinnamic acid, 5 mg/mL in 50% acetonitrile/0.1% TFA, 5 mM NH4PO4). Two microliters of the mixture is spotted onto a MALDI-TOF MS target plate for analysis with an Applied Biosystems (Foster City, Calif.) 4700 Proteomics Analyzer MALDI-TOF MS equipped with a Nd:YAG laser (355 nm, 3 ns pulse width, 200 Hz repetition rate). Hydroxylated peptide product is identified from substrate by the gain of 16 Da. Data defined as percent conversion of substrate to product is analyzed in GraphPad Prism 4 to calculate IC50 values.

HIFPH2 (EGLN1), sequence (Q9GZT9 179-426): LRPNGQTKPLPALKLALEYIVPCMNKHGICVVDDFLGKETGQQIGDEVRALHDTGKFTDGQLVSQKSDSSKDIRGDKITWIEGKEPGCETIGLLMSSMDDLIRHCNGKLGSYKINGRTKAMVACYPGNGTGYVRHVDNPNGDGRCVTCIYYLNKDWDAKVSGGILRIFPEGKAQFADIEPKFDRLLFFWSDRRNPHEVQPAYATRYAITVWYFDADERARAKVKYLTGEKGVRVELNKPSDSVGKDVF

Point of comparison: `CC1CCC(NCc2ccn(Cc3ccccc3)c(=O)c2O)CC1` (centres unmarked) [Compound C17, 1-Benzyl-3-hydroxy-4-[(4-methylcyclohexylamino)methyl]pyridin-2(1H)-one], IC50 11 µM. Against it:
- O=c1c(O)cccn1Cc1cccc(Cl)c1 [Compound F2, 1-(3-chlorobenzyl)-3-hydroxypyridin-2(1H)-one] — 2.2-fold lower, 5 µM
- COc1ccccc1Cn1ccc(CN2CCCCCC2)c(O)c1=O [Compound A18] — 1.6-fold higher, 18 µM
- CC(NCc1ccn(Cc2ccccc2)c(=O)c1O)c1ccccc1 (centres unmarked) [Compound C14, 1-Benzyl-3-hydroxy-4-[(1-phenylethylamino)methyl]pyridin-2(1H)-one] — within 1.5-fold, 12 µM
- O=c1c(O)cccn1Cc1ccc(Cl)cc1 [Compound F3, 1-(4-chlorobenzyl)-3-hydroxypyridin-2(1H)-one] — 9.2-fold lower, 1.2 µM
- CSCCNCc1ccn(Cc2ccccc2)c(=O)c1O [Compound C33] — within 1.5-fold, 16 µM
- 1-Benzyl-3-hydroxy-4-(benzylaminomethyl)pyridin-2(1H)-one [Compound C1] — within 1.5-fold, 12 µM
- O=c1c(O)c(CNCCCn2ccnc2)ccn1Cc1ccccc1 [Compound C35] — within 1.5-fold, 12 µM
- Cc1ccc(S(=O)(=O)n2ccc(CN3CCC(N4CCCCC4)CC3)c(O)c2=O)cc1 [Compound D10, 1-(4′-Methylbenzenesulfonyl)-3-hydroxy-4-[1,4]Bipiperidinyl-1′-ylmethylpyridin-2(1H)-one] — 2.5-fold lower, 4.4 µM
- O=c1c(O)c(CN2CCN(c3ccc(Cl)nn3)CC2)ccn1Cc1ccccc1 [Compound B14, 1-Benzyl-3-hydroxy-4-[4-(6-chloropyridazin-3-yl)piperazin-1-ylmethyl]pyridin-2(1H)-one] — the same, 11 µM
- CC(C)(C)OC(=O)N1CCN(Cc2ccn(Cc3ccc(Cl)cc3)c(=O)c2O)CC1 [Compound A41, tert-butyl 4-{[1-(4-chlorobenzyl)-3-hydroxy-2-oxo-1,2-dihydropyridin-4-yl]methyl}-piperazine-1-carboxylate] — within 1.5-fold, 14 µM
- Cc1ccc(S(=O)(=O)n2ccc(CN3CCN(c4ccc(Cl)nn4)CC3)c(O)c2=O)cc1 [Compound D14, 1-(4′-Methylbenzenesulfonyl)-3-hydroxy-4-[4-(6-chloropyridazin-3-yl)piperazin-1-ylmethyl]pyridin-2(1H)-one] — within 1.5-fold, 12 µM
- COC[C@H]1CCCN1Cc1ccn(Cc2ccccc2)c(=O)c1O [Compound B5, 1-Benzyl-3-hydroxy-4-{[2-(methoxymethyl)pyrrolidin-1-yl]methyl}pyridin-2(1H)-one] — within 1.5-fold, 9 µM
- 1-Benzyl-3-hydroxy-4-(4-benzylpiperidin-1-ylmethyl)pyridin-2(1H)-one [Compound B9] — 1.5-fold higher, 17 µM
- O=C1NCCCCC1NCc1ccn(Cc2ccccc2)c(=O)c1O (centres unmarked) [Compound C19, 3-[(1-Benzyl-3-hydroxy-2-oxo-1,2-dihydropyridin-4-yl)methylamino]azepan-2-one] — within 1.5-fold, 12 µM

Test system: Staphylococcus aureus
Test: not given
Details: dose-dependent; Zinkernagel et al. 2008; cited from earlier work

For `NC(Cn1ccc(=O)c(O)c1)C(=O)O` (centres unmarked) [mimosine], the “capacity of human phagocytes and whole blood to kill Staphylococcus aureus” value is given as “boost”.

Test system: not listed separately
Test: solubility of pharmaceutically acceptable salts in water
Format: physicochemical
Details: not given
Experimental: The formulator can determine the solubility of the pharmaceutically acceptable salts of the disclosed inhibitors by any method desirable. The following is a non-limiting example of a procedure for evaluating the solubility of a salt of a disclosed inhibitor. A suspension of tert-butyl-{1[-(4-chlorobenzyl)-3-hydroxy-2-oxo-1,2-dihydropyridin-4-yl]methyl}-piperazine-1-carboxylate methanesulfonate (26.6 mg) in distilled deionized water (3.0 mL) is sonicated for 20 min with water bath temperature under 25° C. The suspension is filtered to remove any insoluble salt. The clear filtrate solution (200 μL) is diluted with distilled deionized water (800 μL) and subjected to HPLC analysis. The following are results for the pharmaceutically acceptable salts outlined in Table VII above.

Point of comparison: `CC(C)(C)OC(=O)N1CCN(Cc2ccn(Cc3ccc(Cl)cc3)c(=O)c2O)CC1` [hydrochloride, tert-butyl-{[1-(4-chlorobenzyl)-3-hydroxy-2-oxo-1,2-dihydropyridin-4-yl]methyl}-piperazine-1-carboxylate], “Solubility” value 5900 µg/mL. Against it:
- CC(C)(C)OC(=O)N1CCN(Cc2ccn(Cc3ccc(Cl)cc3)c(=O)c2O)CC1 [p-toluenesulfonate, tert-butyl-{[1-(4-chlorobenzyl)-3-hydroxy-2-oxo-1,2-dihydropyridin-4-yl]methyl}-piperazine-1-carboxylate] — 2.6-fold lower, 2300 µg/mL
- tert-butyl-{[1-(4-chlorobenzyl)-3-hydroxy-2-oxo-1,2-dihydropyridin-4-yl]methyl}-piperazine-1-carboxylate [hydrogensulfonate] — 2.2-fold higher, 13200 µg/mL

Same assay, conditions: thermodynamic from solid; distilled deionized water, sonicated 20 min, under 25° C., HPLC

Point of comparison: `CC(C)(C)OC(=O)N1CCN(Cc2ccn(Cc3ccc(Cl)cc3)c(=O)c2O)CC1.CS(=O)(=O)O` [methanesulfonate, tert-butyl-{1[-(4-chlorobenzyl)-3-hydroxy-2-oxo-1,2-dihydropyridin-4-yl]methyl}-piperazine-1-carboxylate methanesulfonate], solubility at 20 min 16600 µg/mL. Against it:
- CC(C)(C)OC(=O)N1CCN(Cc2ccn(Cc3ccc(Cl)cc3)c(=O)c2O)CC1 [Compound A41, tert-butyl 4-{[1-(4-chlorobenzyl)-3-hydroxy-2-oxo-1,2-dihydropyridin-4-yl]methyl}-piperazine-1-carboxylate] — 17000-fold lower, ~1 µg/mL

Test system: S. aureus
Test: not given
Details: Zinkernagel et al. 2008; cited from earlier work

In the case of `NC(Cn1ccc(=O)c(O)c1)C(=O)O` (centres unmarked) [mimosine], the lesion size is listed as “reduce the lesion size”.

Test system: phosphoglycerate kinase (PGK) expression
Test: PGK expression in wild type murine embryonic fibroblasts
Format: cell-based
Details: 1 μM, 10 μM vs. wild type control (FIG. 12)

For `O=c1c(O)cccn1Cc1cccc(Cl)c1` [Compound F2, 1-(3-chlorobenzyl)-3-hydroxypyridin-2(1H)-one], the PGK expression was “up regulation”.
